Test results published in patent US8889874B2, “Imidazolone-chalcone derivatives as potential anticancer agent and process for the preparation thereof” (Council of Scientific and Industrial Research, priority 2010, dated 2014).
Where two headings read alike, the source gives them in different places.

Experiments:
Test in all cases: NCI anticancer screen, SRB assay, 48 h
Type in all cases: cell-based, human
Conditions in all cases: Homo sapiens
BT-549 (breast) = tested on: BT-549 (breast)
Outline: (§1)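 Sulforhodamine B protein assay read cell growth after 48 h of continuous compound exposure. Dose-response curves per cell line used at least five 10-fold-diluted concentrations, within a panel of fifty-three human lines from nine tumour types.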

SF-268 (CNS) = tested on: SF-268 (CNS)
Outline: as §1

MDA-MB-231/ATCC (breast) = tested on: MDA-MB-231/ATCC (breast)
Outline: as §1

TK-10 (renal) = tested on: TK-10 (renal)
Outline: as §1

UACC-62 (melanoma) = tested on: UACC-62 (melanoma)
Outline: as §1

SW-620 (colon) = tested on: SW-620 (colon)
Outline: as §1

HS 578T (breast) = tested on: HS 578T (breast)
Outline: as §1

MDA-MB-435 (melanoma) = tested on: MDA-MB-435 (melanoma)
Outline: as §1

[1] = tested on: NCI-H23 (non-small cell lung)
Outline: as §1

OVCAR-4 (ovarian) = tested on: OVCAR-4 (ovarian)
Outline: as §1

[2] = tested on: K-562 (leukemia cell line)
Outline: as §1

CAKI-1 (renal) = tested on: CAKI-1 (renal)
Outline: as §1

SNB-75 (CNS) = tested on: SNB-75 (CNS)
Outline: as §1

MALME-3M (melanoma) = tested on: MALME-3M (melanoma)
Outline: as §1

PC-3 (prostate) = tested on: PC-3 (prostate)
Outline: as §1

HCT-15 (colon) = tested on: HCT-15 (colon)
Outline: as §1

A498 (renal) = tested on: A498 (renal)
Outline: as §1

KM12 (colon) = tested on: KM12 (colon)
Outline: as §1

UACC-257 (melanoma) = tested on: UACC-257 (melanoma)
Outline: as §1

[3] = tested on: NCI-H226 (non-small cell lung)
Outline: as §1

OVCAR-3 (ovarian) = tested on: OVCAR-3 (ovarian)
Outline: as §1

OVCAR-8 (ovarian) = tested on: OVCAR-8 (ovarian)
Outline: as §1

MCF7 (breast) = tested on: MCF7 (breast)
Outline: as §1

HT29 (colon) = tested on: HT29 (colon)
Outline: as §1

786-0 (renal) = tested on: 786-0 (renal)
Outline: as §1

[4] = tested on: RPMI-8226 (leukemia cell line)
Outline: as §1

[5] = tested on: EKVX (non-small cell lung)
Outline: as §1

[6] = tested on: NCI-H322M (non-small cell lung)
Outline: as §1

SK-MEL-5 (melanoma) = tested on: SK-MEL-5 (melanoma)
Outline: as §1

SF-295 (CNS) = tested on: SF-295 (CNS)
Outline: as §1

[7] = tested on: A549/ATCC (non-small cell lung)
Outline: as §1

LOX IMVI (melanoma) = tested on: LOX IMVI (melanoma)
Outline: as §1

SK-OV-3 (ovarian) = tested on: SK-OV-3 (ovarian)
Outline: as §1

HCT-116 (colon) = tested on: HCT-116 (colon)
Outline: as §1

TD-47D (breast) = tested on: TD-47D (breast)
Outline: as §1

[8] = tested on: NCI-H522 (non-small cell lung)
Outline: as §1

[9] = 48 h exposure, SRB, read-out: GI50
[10] = read-out: pGI50 (-log of molar concentration causing 50% inhibition of net cell growth) (converted)

## COc1cc(/C=C/C(=O)c2cccc(-n3cc(-c4ccccc4)[nH]c3=O)c2)cc(OC)c1OC [5a, 4-phenyl-1-3-[(E)-3-(3,4,5-trimethoxyphenyl)-2-propenoyl]phenyl-2,3-dihydro-1H-2-imidazolone]
BT-549 (breast); [9]
  GI50: 1930 nM
BT-549 (breast); [10]
  GI50: 1950 nM
SF-268 (CNS); [9]
  GI50: 1920 nM
SF-268 (CNS); [10]
  GI50: 1910 nM
MDA-MB-231/ATCC (breast); [9]
  GI50: 2170 nM
MDA-MB-231/ATCC (breast); [10]
  GI50: 2190 nM
TK-10 (renal); [9]
  GI50: 3020 nM
TK-10 (renal); [10]
  GI50: 3020 nM
UACC-62 (melanoma); [9]
  GI50: 1520 nM
UACC-62 (melanoma); [10]
  GI50: 1510 nM
SW-620 (colon); [9]
  GI50: 390 nM
SW-620 (colon); [10]
  GI50: 389 nM
HS 578T (breast); [9]
  GI50: 3410 nM
HS 578T (breast); [10]
  GI50: 3390 nM
MDA-MB-435 (melanoma); [9]
  GI50: 1200 nM
MDA-MB-435 (melanoma); [10]
  GI50: 1200 nM
[1]; [9]
  GI50: 1430 nM
[1]; [10]
  GI50: 1450 nM
OVCAR-4 (ovarian); [9]
  GI50: 1880 nM
OVCAR-4 (ovarian); [10]
  GI50: 1860 nM
[2]; K562, 48 h exposure, SRB, read-out: GI50
  GI50: 500 nM
[2]; K562, read-out: pGI50 (-log of molar concentration causing 50% inhibition of net cell growth) (converted)
  GI50: 501 nM
CAKI-1 (renal); [9]
  GI50: 1750 nM
CAKI-1 (renal); [10]
  GI50: 1740 nM
SNB-75 (CNS); [9]
  GI50: 4470 nM
SNB-75 (CNS); [10]
  GI50: 4470 nM
MALME-3M (melanoma); Malme-3M, read-out: pGI50 (-log of molar concentration causing 50% inhibition of net cell growth) (converted)
  GI50: 1320 nM
MALME-3M (melanoma); MALME-3M, 48 h exposure, SRB, read-out: GI50
  GI50: 1310 nM
PC-3 (prostate); PC-3, read-out: pGI50 (-log of molar concentration causing 50% inhibition of net cell growth) (converted)
  GI50: 3240 nM
PC-3 (prostate); one prostate cancer cell line (PC-3), exposure at least 48 hrs, read-out: GI50
  GI50: 3260 nM
HCT-15 (colon); [9]
  GI50: 1130 nM
HCT-15 (colon); [10]
  GI50: 1120 nM
A498 (renal); [9]
  GI50: 2650 nM
A498 (renal); [10]
  GI50: 2630 nM
KM12 (colon); [9]
  GI50: 1370 nM
KM12 (colon); [10]
  GI50: 1380 nM
UACC-257 (melanoma); [9]
  GI50: 1520 nM
UACC-257 (melanoma); [10]
  GI50: 1510 nM
[3]; [9]
  GI50: 14600 nM
[3]; [10]
  GI50: 14500 nM
OVCAR-3 (ovarian); [9]
  GI50: 1230 nM
OVCAR-3 (ovarian); [10]
  GI50: 1230 nM
OVCAR-8 (ovarian); [9]
  GI50: 1620 nM
OVCAR-8 (ovarian); [10]
  GI50: 1620 nM
MCF7 (breast); [9]
  GI50: 310 nM
MCF7 (breast); [10]
  GI50: 309 nM
HT29 (colon); HT-29, 48 h exposure, SRB, read-out: GI50
  GI50: 660 nM
HT29 (colon); HT-29, read-out: pGI50 (-log of molar concentration causing 50% inhibition of net cell growth) (converted)
  GI50: 661 nM
786-0 (renal); [9]
  GI50: 1380 nM
786-0 (renal); [10]
  GI50: 1380 nM
[4]; [9]
  GI50: 620 nM
[4]; [10]
  GI50: 617 nM
[5]; [9]
  GI50: 2300 nM
[5]; [10]
  GI50: 2290 nM
[6]; [9]
  GI50: 2020 nM
[6]; [10]
  GI50: 2040 nM
SK-MEL-5 (melanoma); [9]
  GI50: 1400 nM
SK-MEL-5 (melanoma); [10]
  GI50: 1410 nM
SF-295 (CNS); [9]
  GI50: 1900 nM
SF-295 (CNS); [10]
  GI50: 1910 nM
[7]; [9]
  GI50: 4030 nM
[7]; [10]
  GI50: 4070 nM
LOX IMVI (melanoma); [9]
  GI50: 480 nM
LOX IMVI (melanoma); [10]
  GI50: 479 nM
SK-OV-3 (ovarian); [9]
  GI50: 3270 nM
SK-OV-3 (ovarian); [10]
  GI50: 3240 nM
HCT-116 (colon); [9]
  GI50: 330 nM
HCT-116 (colon); [10]
  GI50: 331 nM
TD-47D (breast); [9]
  GI50: 2190 nM
TD-47D (breast); [10]
  GI50: 2190 nM
[8]; [9]
  GI50: 950 nM
[8]; [10]
  GI50: 955 nM
